Holding throughout (format): in vivo
Test [1] relates to Amaranthus retroflexus. Briefly: Pre-emergence herbicidal action. Particulars: 320 g/ha, scored after about 3 weeks, 100% = plants have died, 0% = like control plants. From the text: (§1) Seeds of monocotyledonous and dicotyledonous weed plants and crop plants were placed in plastic or wood-fiber pots and covered with soil. The compounds of the invention, formulated in the form of wettable powders (WP) or as emulsion concentrates (EC), were then applied to the surface of the covering soil as aqueous suspension or emulsion with addition of 0.5% additive at a water application rate equivalent to 600 l/ha. After the treatment, the pots were placed in a greenhouse and kept under good growth conditions for the test plants. After about 3 weeks, the effect of the preparations is scored visually in comparison with untreated controls as percentages. For example, 100% activity=the plants have died, 0% activity=like control plants. Tables B7 to B11 below show the effects of selected compounds of the general formula (I) according to Table A1 at an application rate of 320 g/ha on various harmful plants, which were obtained by the aforementioned experimental procedure.

Test [2] concerns Viola tricolor. Description: Pre-emergence herbicidal action. The note with it: 320 g/ha, scored after about 3 weeks, 100% = plants have died, 0% = like control plants.
Description: as §1

The subject of test [3] is Matricaria inodora. Briefly: Pre-emergence herbicidal action. The note with it: 320 g/ha, scored after about 3 weeks, 100% = plants have died, 0% = like control plants.
Description: as §1

In test [4] the test system is Stellaria media. Briefly: Pre-emergence herbicidal action. Particulars: 320 g/ha, scored after about 3 weeks, 100% = plants have died, 0% = like control plants.
Description: as §1

Test [5] deals with Amaranthus retroflexus. Description: Post-emergence herbicidal action. Particulars: 320 g/ha, rated after about 3 weeks, 100% = plants have died, 0% = like control plants. On the procedure: (§2) Seeds of monocotyledonous and dicotyledonous weeds and crop plants were placed in sandy loam in plastic or wood-fiber pots, covered with soil and cultivated in a greenhouse under controlled growth conditions. 2 to 3 weeks after sowing, the test plants were treated at the one-leaf stage. The compounds of the invention, formulated in the form of wettable powders (WP) or as emulsion concentrates (EC), were then sprayed onto the green parts of the plants as aqueous suspension or emulsion with addition of 0.5% additive at a water application rate of 600 l/ha (converted). After the test plants had been kept in the greenhouse under optimum growth conditions for about 3 weeks, the activity of the preparations was rated visually in comparison to untreated controls. For example, 100% activity=the plants have died, 0% activity=like control plants. Tables B1 to B6 below show the effects of selected compounds of the general formula (I) according to Table A1 at an application rate of 320 g/ha on various harmful plants, which were obtained by the aforementioned experimental procedure.

Test [6] has as its system Viola tricolor. Briefly: Post-emergence herbicidal action. Particulars: 320 g/ha, rated after about 3 weeks, 100% = plants have died, 0% = like control plants. On the procedure: as §2
For test [7], the system named is Veronica persica. Briefly: Post-emergence herbicidal action. Particulars: 320 g/ha, rated after about 3 weeks, 100% = plants have died, 0% = like control plants. On the procedure: as §2
Test [8] has as its system Stellaria media. Briefly: Post-emergence herbicidal action. The note with it: 320 g/ha, rated after about 3 weeks, 100% = plants have died, 0% = like control plants. On the procedure: as §2
Test [9] relates to Veronica persica. Briefly: Pre-emergence herbicidal action. The note with it: 320 g/ha, scored after about 3 weeks, 100% = plants have died, 0% = like control plants.
Description: as §1

For another test, the system named is Ipomoea purpurea. Briefly: Post-emergence herbicidal action. The note with it: 320 g/ha, rated after about 3 weeks, 100% = plants have died, 0% = like control plants. On the procedure:
as §2

For test [10], the system named is Matricaria inodora. Briefly: Post-emergence herbicidal action. Particulars: 320 g/ha, rated after about 3 weeks, 100% = plants have died, 0% = like control plants. On the procedure: as §2

With `Cc1nn(C)c(-c2ccc(F)cc2Cl)c1C(=O)Nc1cccc2c1C(C)OC2(C)C` (centres unmarked) [I-019], the “herbicidal activity on Amaranthus retroflexus (visual rating vs untreated controls)” value in the test on Amaranthus retroflexus [1] and in the test with Amaranthus retroflexus [5] was 100% in each case. Also, the “herbicidal activity on Viola tricolor (visual rating vs untreated controls)” value in the test with Viola tricolor [2] and in the test on Viola tricolor [6] was 100% in each case. Moreover, the “herbicidal activity on Matricaria inodora (visual rating vs untreated controls)” value with Matricaria inodora [3] is 100%. Also, the “herbicidal activity on Stellaria media (visual rating vs untreated controls)” value in the test with Stellaria media [4] worked out at 100%; with Stellaria media [8] it was 80%. The “herbicidal activity on Veronica persica (visual rating vs untreated controls)” value in the test on Veronica persica [7] amounted to 100%.

Turning to `Cc1cccc(NC(=O)c2c(C)nn(C)c2-c2ccc(F)cc2Cl)c1` [I-022], the “herbicidal activity on Amaranthus retroflexus (visual rating vs untreated controls)” value in the test with Amaranthus retroflexus [1] and in the test with Amaranthus retroflexus [5] was 100% each time. The “herbicidal activity on Veronica persica (visual rating vs untreated controls)” value in the test with Veronica persica [9] and in the test on Veronica persica [7] was 100% throughout. Moreover, in the test on Matricaria inodora [3], the “herbicidal activity on Matricaria inodora (visual rating vs untreated controls)” value was determined as 100%. For the same molecule, the “herbicidal activity on Stellaria media (visual rating vs untreated controls)” value in the test with Stellaria media [4] and in the test on Stellaria media [8] was 100% throughout. Also, in the test on Viola tricolor [6], the “herbicidal activity on Viola tricolor (visual rating vs untreated controls)” value is on record as 100%.

`Cc1cccc(NC(=O)c2c(C)nn(C)c2-c2ccc(F)cc2Cl)c1C` [I-030]: the “herbicidal activity on Amaranthus retroflexus (visual rating vs untreated controls)” value in the test on Amaranthus retroflexus [1] and in the test with Amaranthus retroflexus [5] was 100% throughout. The “herbicidal activity on Veronica persica (visual rating vs untreated controls)” value with Veronica persica [9] is reported as 100%. Further, the “herbicidal activity on Matricaria inodora (visual rating vs untreated controls)” value in the test with Matricaria inodora [3] is on record as 100%; in the test on Matricaria inodora [10], 90%. Besides, the “herbicidal activity on Stellaria media (visual rating vs untreated controls)” value in the test with Stellaria media [4] and with Stellaria media [8] was 100% in each case. In addition, in the test with Ipomoea purpurea, the “herbicidal activity on Ipomoea purpurea (visual rating vs untreated controls)” value amounted to 100%. In addition, in the test on Viola tricolor [6], the “herbicidal activity on Viola tricolor (visual rating vs untreated controls)” value worked out at 100%.

For the molecule `Cc1nn(C)c(-c2cc(F)ccc2Cl)c1C(=O)Nc1cccc(Cl)c1` [I-004], the “herbicidal activity on Amaranthus retroflexus (visual rating vs untreated controls)” value with Amaranthus retroflexus [1] and with Amaranthus retroflexus [5] was 100% throughout. The “herbicidal activity on Viola tricolor (visual rating vs untreated controls)” value in the test on Viola tricolor [2] was determined as 80%; in the test with Viola tricolor [6] it was 100%. Also, the “herbicidal activity on Matricaria inodora (visual rating vs untreated controls)” value with Matricaria inodora [3] is listed as 90%. The “herbicidal activity on Stellaria media (visual rating vs untreated controls)” value is listed as 80% in the test on Stellaria media [4] and 100% with Stellaria media [8]. In addition, in the test with Veronica persica [7], the “herbicidal activity on Veronica persica (visual rating vs untreated controls)” value was found to be 100%.

For `Cc1nn(C)c(-c2ccc(F)cc2Cl)c1C(=O)Nc1cc(F)ccc1F` [I-008], the “herbicidal activity on Amaranthus retroflexus (visual rating vs untreated controls)” value in the test with Amaranthus retroflexus [1] and in the test on Amaranthus retroflexus [5] was 100% throughout. The “herbicidal activity on Viola tricolor (visual rating vs untreated controls)” value in the test with Viola tricolor [2] and in the test with Viola tricolor [6] was 100% throughout. Moreover, in the test on Matricaria inodora [3], the “herbicidal activity on Matricaria inodora (visual rating vs untreated controls)” value is reported as 90%. Also, the “herbicidal activity on Stellaria media (visual rating vs untreated controls)” value with Stellaria media [4] and in the test with Stellaria media [8] was 100% throughout. Also, the “herbicidal activity on Veronica persica (visual rating vs untreated controls)” value in the test on Veronica persica [7] is reported as 80%.

Regarding `Cc1nn(C)c(-c2ccc(F)cc2Cl)c1C(=O)Nc1ccccc1Cl` [I-029], the “herbicidal activity on Matricaria inodora (visual rating vs untreated controls)” value in the test with Matricaria inodora [3] came out at 100%. The “herbicidal activity on Stellaria media (visual rating vs untreated controls)” value in the test on Stellaria media [4] and in the test with Stellaria media [8] was 100% throughout. In the test with Amaranthus retroflexus [5], the “herbicidal activity on Amaranthus retroflexus (visual rating vs untreated controls)” value is listed as 100%. For the same molecule, in the test on Viola tricolor [6], the “herbicidal activity on Viola tricolor (visual rating vs untreated controls)” value was found to be 100%. In the test with Veronica persica [7], the “herbicidal activity on Veronica persica (visual rating vs untreated controls)” value was 100%.

Turning to `Cc1ccccc1NC(=O)c1c(C)nn(C)c1-c1ccc(F)cc1Cl` [I-016], the “herbicidal activity on Amaranthus retroflexus (visual rating vs untreated controls)” value with Amaranthus retroflexus [1] and with Amaranthus retroflexus [5] was 100% each time. Further, the “herbicidal activity on Veronica persica (visual rating vs untreated controls)” value with Veronica persica [9] is listed as 80%. Further, the “herbicidal activity on Matricaria inodora (visual rating vs untreated controls)” value in the test on Matricaria inodora [3] and with Matricaria inodora [10] was 100% each time. Also, the “herbicidal activity on Stellaria media (visual rating vs untreated controls)” value in the test with Stellaria media [4] and with Stellaria media [8] was 100% throughout. Also, the “herbicidal activity on Ipomoea purpurea (visual rating vs untreated controls)” value in the test with Ipomoea purpurea is reported as 100%. For the same molecule, the “herbicidal activity on Viola tricolor (visual rating vs untreated controls)” value in the test on Viola tricolor [6] was 100%.

Source of the values: patent US20200172491A1, “SUBSTITUTED 5-(HET-)ARYLPYRAZOLAMIDES AND SALTS THEREOF AND THEIR USE AS HERBICIDAL ACTIVE SUBSTANCES” (Bayer CropScience Aktiengesellschaft, priority 2017, published 2020).
